Assay results published in patent publication US20040033273A1, “Withasol and methods of use” (AyurCore, Inc., priority 2001, published 2004).

System: BALB/c mouse implanted with ascitic sarcoma (S-180), CP treated
Details: for Hb / Platelet Count (×10^3/mcl) / RBC Count (×10^6/mcl) / WBC Difference Count (%) Lymphocytes / WBC Difference Count (%) Polymorph / WBC Total Count (×10^3/mcl): CP +: CP 150 mg/kg ip day 11, coded drug 100 mg/kg (vehicle for CP alone) po day 1-15, blood day 16; for Difference in Weight (g) from Day 1 to 16: CP +: S-180 bearing antigen-challenged mice, CP 150 mg/kg ip day 11, coded drug 100 mg/kg (vehicle for CP alone) po day 1-15; for change in body weight / change in HA antibody titers / change in HL antibody titers / change in hemoglobin content / change in platelet counts / change in red cell counts / change in white cell differential counts / change in white cell total counts: vs group IV (tumor +, CP +, vehicle), drug po day 1-15, CP 150 mg/kg ip day 11, ANOVA; for change in HA antibody titers / change in HL antibody titers / change in hemoglobin content / change in platelet counts / change in red cell counts / change in white cell differential counts / change in white cell total counts: day 16
[1] = Tumor +, CP +: CP 150 mg/kg ip day 11, coded drug 100 mg/kg (vehicle for CP alone) po day 1-15, serum day 16, mean +/- SD
[2] = tumor-bearing CP-treated mice, vs CP alone

Row | SMILES | Hb (Tumor +, mean +/- SD) | Platelet Count (×10^3/mcl) (Tumor +, mean +/- SD) | RBC Count (×10^6/mcl) (Tumor +, mean +/- SD) | WBC Difference Count (%) Lymphocytes (Tumor +, mean +/- SD) | WBC Difference Count (%) Polymorph (Tumor +, mean +/- SD) | WBC Total Count (×10^3/mcl) (Tumor +, mean +/- SD) | CF Titre (Log2) [1] | HA Titre (Log2) [1] | Difference in Weight (g) from Day 1 to 16 (Tumor +, mean +/- SD) | effect on CP-induced immunosuppression / immunostimulatory activity (conclusion) [2] | effect on CP-induced myelosuppression (conclusion) [2] | other activity indicated (conclusion) [2] | change in body weight | change in HA antibody titers | change in HL antibody titers | change in hemoglobin content | change in platelet counts | change in red cell counts | change in white cell differential counts | change in white cell total counts
1 | O=C1O[C@H]([C@@H](O)CO)C(O)=C1O [Drug T, Vitamin C] | 15.37 ± 1.481 g/dL | 822.67 +/− 234.142 ×10^3/mcl | 4.25 +/− 0.661 ×10^6/mcl | 63.30 +/− 6.266% | 36.70 +/− 6.266% | 7.13 +/− 0.949 ×10^3/mcl | 5.67 +/− 0.516 Log2 | 5.33 +/− 0.516 Log2 | -2.67 ± 1.751 g | protective effect on CP-induced myelo and immunosuppression | protective effect on CP-induced myelo and immunosuppression | mild hematinic activity | no significant change | significantly increased | significantly increased | significantly increased | No significant change | No significant change | no significant change | significantly increased
2 | O=S(=O)(O)CCS [Mesna] | 14.08 ± 1.689 g/dL | 608.83 +/− 239.813 ×10^3/mcl | 4.12 +/− 0.609 ×10^6/mcl | 62.42 +/− 9.902% | 37.58 +/− 9.902% | 3.67 +/− 1.218 ×10^3/mcl | – | 2.17 +/− 0.408 Log2 | -2.5 ± 1.049 g | no effect on body weight and CP-induced myelo and immunosuppression | no effect on body weight and CP-induced myelo and immunosuppression | – | no significant change | no significant change | no significant change | no significant change | no significant change | no significant change | no significant change | no significant change
